Test results taken from PubChem BioAssay AID256 (DTP/NCI, 2004).
Values joined by “and” are separate entries in the source; they are usually repeats but may differ in a detail not shown here. Identical values can stand only once. Toxic doses and inconclusive results are not listed.

Test system: CD2F1 mice, L1210 leukemia ip, survival T/C
Assay: NCI In Vivo Anticancer Drug Screen. Data for tumor model L1210 Leukemia (intraperitoneal) in CD2F1 (CDF1) mice
Details: higher = longer survival
Method in brief: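 Activity against a transplanted murine tumor was judged by comparing the compound group with a vehicle group. The outcome in the treated animals was divided by that in the controls.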

Nc1nc([Se])c2ncn(C3OC(CO)C(O)C3O)c2n1 (stereo not given)
T/C (endpoint: mean survival time, dose: 1.0 mg/kg/injection, schedule: Q01DX009 (ip), vehicle: saline): 123 % of control
T/C (endpoint: mean survival time, dose: 2.0 mg/kg/injection, schedule: Q01DX009 (ip), vehicle: distilled water + Tween-80): 114 % of control
T/C (endpoint: mean survival time, dose: 2.0 mg/kg/injection, schedule: Q01DX009 (ip), vehicle: water): 119 % of control
T/C (endpoint: mean survival time, dose: 2.0 mg/kg/injection, schedule: Q04DX003 (ip), vehicle: DMSO): 117 % of control
T/C (endpoint: mean survival time, dose: 2.0 mg/kg/injection, schedule: Q04DX003 (ip), vehicle: clinical formulation): 116 % of control and 109 % of control
T/C (endpoint: mean survival time, dose: 2.0 mg/kg/injection, schedule: Q04DX003 (ip), vehicle: saline): 115 % of control and 119 % of control
T/C (endpoint: mean survival time, dose: 2.5 mg/kg/injection, schedule: Q01DX005 (iv), vehicle: water): 95 % of control
T/C (endpoint: mean survival time, dose: 4.0 mg/kg/injection, schedule: Q04DX003 (ip), vehicle: DMSO): 113 % of control
T/C (endpoint: mean survival time, dose: 4.0 mg/kg/injection, schedule: Q04DX003 (ip), vehicle: clinical formulation): 113 % of control
T/C (endpoint: mean survival time, dose: 5.0 mg/kg/injection, schedule: Q01DX005 (iv), vehicle: water): 113 % of control
T/C (endpoint: mean survival time, dose: 8.0 mg/kg/injection, schedule: Q04DX003 (ip), vehicle: clinical formulation): 115 % of control
T/C (endpoint: mean survival time, dose: 12.5 mg/kg/injection, schedule: Q01DX005 (ip), vehicle: saline): 169 % of control
T/C (endpoint: mean survival time, dose: 16.0 mg/kg/injection, schedule: Q01DX009 (ip), vehicle: distilled water + Tween-80): 150 % of control
T/C (endpoint: mean survival time, dose: 16.0 mg/kg/injection, schedule: Q01DX009 (ip), vehicle: water): 119 % of control
T/C (endpoint: mean survival time, dose: 25.0 mg/kg/injection, schedule: Q01DX005 (ip), vehicle: saline): 191 % of control
T/C (endpoint: mean survival time, dose: 32.0 mg/kg/injection, schedule: Q01DX009 (ip), vehicle: distilled water + Tween-80): 156 % of control
T/C (endpoint: mean survival time, dose: 32.0 mg/kg/injection, schedule: Q01DX009 (ip), vehicle: saline): 116 % of control and 117 % of control
T/C (endpoint: mean survival time, dose: 32.0 mg/kg/injection, schedule: Q01DX009 (ip), vehicle: water): 92 % of control
T/C (endpoint: mean survival time, dose: 40.0 mg/kg/injection, schedule: Q01DX005 (iv), vehicle: water): 151 % of control
T/C (endpoint: mean survival time, dose: 50.0 mg/kg/injection, schedule: Q01DX005 (ip), vehicle: saline): 187 % of control
T/C (endpoint: mean survival time, dose: 64.0 mg/kg/injection, schedule: Q01DX009 (ip), vehicle: saline): 87 % of control
T/C (endpoint: median survival time, dose: 1.0 mg/kg/injection, schedule: Q01DX009 (sc), vehicle: DMSO): 100 % of control
T/C (endpoint: median survival time, dose: 1.0 mg/kg/injection, schedule: Q03HX016 (ip), vehicle: DMSO): 153 % of control
T/C (endpoint: median survival time, dose: 1.0 mg/kg/injection, schedule: Q03HX024 (ip), vehicle: DMSO): 150 % of control
T/C (endpoint: median survival time, dose: 2.0 mg/kg/injection, schedule: Q01DX009 (ip), vehicle: DMSO): 172 % of control
T/C (endpoint: median survival time, dose: 2.0 mg/kg/injection, schedule: Q01DX009 (sc), vehicle: DMSO): 111 % of control
T/C (endpoint: median survival time, dose: 2.0 mg/kg/injection, schedule: Q03HX008 (ip), vehicle: DMSO): 171 % of control
T/C (endpoint: median survival time, dose: 2.0 mg/kg/injection, schedule: Q03HX016 (ip), vehicle: DMSO): 162 % of control
T/C (endpoint: median survival time, dose: 2.0 mg/kg/injection, schedule: Q03HX024 (ip), vehicle: DMSO): 178 % of control
T/C (endpoint: median survival time, dose: 4.0 mg/kg/injection, schedule: Q01DX009 (ip), vehicle: DMSO): 200 % of control
T/C (endpoint: median survival time, dose: 4.0 mg/kg/injection, schedule: Q01DX009 (oral), vehicle: DMSO): 107 % of control
T/C (endpoint: median survival time, dose: 4.0 mg/kg/injection, schedule: Q03HX008 (ip), vehicle: DMSO): 173 % of control
T/C (endpoint: median survival time, dose: 4.0 mg/kg/injection, schedule: Q03HX016 (ip), vehicle: DMSO): 185 % of control
T/C (endpoint: median survival time, dose: 4.0 mg/kg/injection, schedule: Q03HX024 (ip), vehicle: DMSO): 175 % of control
T/C (endpoint: median survival time, dose: 4.0 mg/kg/injection, schedule: Q08DX002 (ip), vehicle: DMSO): 123 % of control
T/C (endpoint: median survival time, dose: 8.0 mg/kg/injection, schedule: Q01DX001 (sc), vehicle: DMSO): 112 % of control
T/C (endpoint: median survival time, dose: 8.0 mg/kg/injection, schedule: Q01DX009 (ip), vehicle: DMSO): 175 % of control
T/C (endpoint: median survival time, dose: 8.0 mg/kg/injection, schedule: Q01DX009 (oral), vehicle: DMSO): 123 % of control
T/C (endpoint: median survival time, dose: 8.0 mg/kg/injection, schedule: Q01DX009 (sc), vehicle: DMSO): 166 % of control
T/C (endpoint: median survival time, dose: 8.0 mg/kg/injection, schedule: Q03HX008 (ip), vehicle: DMSO): 176 % of control
T/C (endpoint: median survival time, dose: 8.0 mg/kg/injection, schedule: Q03HX016 (ip), vehicle: DMSO): 176 % of control
T/C (endpoint: median survival time, dose: 8.0 mg/kg/injection, schedule: Q03HX024 (ip), vehicle: DMSO): 185 % of control
T/C (endpoint: median survival time, dose: 8.0 mg/kg/injection, schedule: Q04DX003 (ip), vehicle: DMSO): 166 % of control
T/C (endpoint: median survival time, dose: 16.0 mg/kg/injection, schedule: Q01DX001 (oral), vehicle: DMSO): 120 % of control
T/C (endpoint: median survival time, dose: 16.0 mg/kg/injection, schedule: Q01DX001 (sc), vehicle: DMSO): 121 % of control
T/C (endpoint: median survival time, dose: 16.0 mg/kg/injection, schedule: Q01DX009 (ip), vehicle: DMSO): 191 % of control
T/C (endpoint: median survival time, dose: 16.0 mg/kg/injection, schedule: Q01DX009 (oral), vehicle: DMSO): 158 % of control
T/C (endpoint: median survival time, dose: 16.0 mg/kg/injection, schedule: Q01DX009 (sc), vehicle: DMSO): 187 % of control
T/C (endpoint: median survival time, dose: 16.0 mg/kg/injection, schedule: Q04DX003 (ip), vehicle: DMSO): 178 % of control
T/C (endpoint: median survival time, dose: 16.0 mg/kg/injection, schedule: Q08DX002 (ip), vehicle: DMSO): 102 % of control
T/C (endpoint: median survival time, dose: 32.0 mg/kg/injection, schedule: Q01DX001 (oral), vehicle: DMSO): 117 % of control
T/C (endpoint: median survival time, dose: 32.0 mg/kg/injection, schedule: Q01DX009 (ip), vehicle: DMSO): 178 % of control
T/C (endpoint: median survival time, dose: 32.0 mg/kg/injection, schedule: Q01DX009 (oral), vehicle: DMSO): 167 % of control
T/C (endpoint: median survival time, dose: 32.0 mg/kg/injection, schedule: Q01DX009 (sc), vehicle: DMSO): 160 % of control
T/C (endpoint: median survival time, dose: 32.0 mg/kg/injection, schedule: Q04DX003 (ip), vehicle: DMSO): 183 % of control
T/C (endpoint: median survival time, dose: 64.0 mg/kg/injection, schedule: Q01DX009 (ip), vehicle: DMSO): 116 % of control
T/C (endpoint: median survival time, dose: 64.0 mg/kg/injection, schedule: Q01DX009 (oral), vehicle: DMSO): 160 % of control
T/C (endpoint: median survival time, dose: 64.0 mg/kg/injection, schedule: Q01DX009 (sc), vehicle: DMSO): 111 % of control
T/C (endpoint: median survival time, dose: 64.0 mg/kg/injection, schedule: Q04DX003 (ip), vehicle: DMSO): 191 % of control
T/C (endpoint: median survival time, dose: 128.0 mg/kg/injection, schedule: Q01DX001 (ip), vehicle: DMSO): 121 % of control
